Test results as given in US8669232B2, “Flavonol compounds, a bioactive extract/fraction from Ulmus wallichiana and its compounds for prevention for treatment of osteo-health related disorders” (Council of Scientific & Industrial Research, priority 2008, dated 2014).

Legend:
calvarial osteoblasts [1] = test: Alkaline phosphatase activity assay in calvarial osteoblasts; type: cell-based, neonatal Sprague-Dawley rats
Protocol: (§1) Neonatal rat calvarial cell cultures are prepared as described previously (Chattopadhyay et al., Endocrinology 145:3451-62, 2004) using slight modification. Briefly, for calvarial osteoblast cultures, frontal and parietal bones from neonatal Sprague-Dawley rats (1-3 day old) were digested in 0.1% collagenase/0.1% dispase in α-MEM to obtain 5 sequential digests. The second through fifth digests are combined and grown to confluence at 37° C. and 5% CO2 in air in α-MEM, supplemented with 10% fetal bovine serum (FBS), 2 mM glutamine, 100 U/ml penicillin-streptomycin, non-essential amino acid solution and sodium pyruvate.
For alkaline phosphatase (ALP) assay, osteoblasts were plated in 96-well (2000 cells/well) plates in regular growth medium. Twenty-four hours later, when the cells formed a confluent monolayer, medium was replaced with α-MEM medium supplemented with 10% FBS, 10 mM β-glycerophosphate and 50 μg/ml ascorbic acid. Treatment was given with varying concentration of the test compound K012, K058, K068 and K100 at 1 nM and 100 nM concentration. Forty-eight hours after induction, ALP activity of the osteoblasts was determined as described by Akiyama et al (Exp Cell Res 235:362-369, 1997) with slight modifications. Briefly, cells were washed once with PBS and ALP activity was measured by adding ALP buffer (1 M diethanolamine, 0.5 mM MgCl2, 1 mg/ml PNPP, pH 9.0), incubating in 37° C., and absorbance (405 nm) was measured using a microplate spectrophotometer. Statistical significance was determined by paired two-tailed Student's t-tests.

calvarial osteoblasts [2] = test: BrdU cell proliferation assay; type: cell-based, neonatal Sprague-Dawley rats
Protocol: as §1
BrdU assay is used to measure cell proliferation based on the incorporation of BrdU during DNA synthesis in proliferating cells (Chattopadhyay et al., Endocrinology 145:3451-62, 2004). […] Cells were allowed to attach for 24 h and after that cells were starved in 0.5% FCS containing α-MEM medium followed by treatment of K058 at various concentrations for 24 hrs following which cell proliferation was determined by BrdU ELISA method as described by the manufacturer (Roche Biochemicals, Rotkreuz, Switzerland). […] BrdU incubation was carried out for 4 h, cells were fixed and denatured and subsequently treated with anti-BrdU antibody and the immune complexes were detected by the substrate reaction. Absorbance was measured at 370 nm.

Bone marrow cells (BMCs) = test: In vitro mineralization from mouse bone marrow; type: cell-based, balb/c mice; conditions: 1 nM and 100 nM, 21 days
Description: Adult balb/c mice were used in this study. Bone marrow cells (BMCs) were harvested from the femurs and tibias of the animals, as described elsewhere (Maniatopoulos et al. Cell Tissue Res 1988:254:317-30.; Ishaug et al., J Biomed Mater Res 1997; 36:17-28.). Briefly, bones were aseptically excised from the hind limbs of the mice following ether euthanasia. The soft tissue was removed, and the proximal end of the femur and distal end of the tibia were clipped off using sterile scissors, a hole was created in the knee joint end of each bone with an needle, and the marrow was flushed from the shaft with control medium (CM) which consisted of α-MEM supplemented with 10% fetal calf serum, 100 U/ml penicillin, 100 U/ml streptomycin (Sigma, Chemical Co., St. Louis, Mo., USA). The cells were suspended in this medium, and the cell suspensions from all bones were combined in a centrifuge tube. The suspension was spun down at 800 rpm for 5 min. Cells were counted by using a haemocytometer. The supernatant was aspirated, and the pellet was re-suspended in fresh CM and then seeded into 12-well plates. 200000 cells/well were cultured in 12-well plates and in a humidified atmosphere, with 5% CO2, at 37° C. in the same medium supplemented with 10 mM-β-glycerophosphate, 50 μg/ml L-ascorbic acid and 10^−8M dexamethasone with different concentration of the test compound. This medium was replaced every other day (John et al. Trends. Biomater. Artif. Organs 2002:16(1):28-33.; Connolly. Clin Orthop 1995:313: 8-18.; Gebhart and Lane. Acta Orthop Belg 1991:57(2):130-43.; Gurpinar et al. J Biomater Appl 2003; 18(1):25-33; Lan and Wang, Blood Substitutes. Biotechnol 2003; 31(1):59-68.). Treatments K012, K058, K068 and K0100 at 1 nM and 100 nM concentration were given for 21 days and after completion of the treatment samples were rinsed with PBS followed by fixation (4% HCHO for […]). Samples were then rinsed with nanopure water and stained for 10 min with 40 mM AR-S, pH 4.2, at room temperature. […] Photomicrographs of the stained wells were taken. Subsequently, alizarin red-S stain was extracted using 10% (w/v) CPC in […] sodium phosphate, pH 7.0, for […] at room temperature, and the resulting solutions were read on a Microplate reader with a test wavelength of 540 nm against a reference wavelength of 620 nm.

| Structure (SMILES) | osteoblast differentiation (summary of in vitro effects) (calvarial osteoblasts [1]) | osteoblast proliferation (summary of in vitro effects) (calvarial osteoblasts [2]) | mineralization of bone marrow osteoblasts (alizarin red staining) (Bone marrow cells (BMCs)) |
| --- | --- | --- | --- |
| O=c1c(O)c(-c2ccc(O)c(O)c2)oc2cc(O)c(C3O[C@H](CO)[C@@H](O)[C@H](O)[C@H]3O)c(O)c12 (stereo partly drawn) [K012, 6-Glucopyranosyl-3,3′,4′,5,7-pentahydroxyflavone] | promoted | promoted | stimulated |
| O=C1c2c(cc(O)c([C@@H]3OC(CO)[C@@H](O)[C@H](O)C3O)c2O)O[C@@H](c2ccc(O)c(O)c2)[C@@H]1O (stereo partly drawn) [K058, (2S,3S)-(+)-3′,4′,5,7-tetrahydroxydihydroflavonol-6-C-β-D-glucopyranoside] | promoted | promoted | stimulated |
